Assay results published in patent publication US8552058B2, “Application of L-n-butylphthalide in preventing and treating dementia” (CSPC Zhongqi Pharmaceutical Technology (Shijazhuang) Co., …, priority 2004, dated 2013).
“Also recorded” adds a separate entry of the source.

Assays:
Format in all cases: in vivo, Wistar rats
[1] = tested on: rats with permanent ligation of bilateral common carotid arteries (2-VO model); experiment: Morris' water maze (training latency, platform exploration) in 2-VO hypoperfusion model; settings: for amelioration of impaired short-term memory and spatial orientation (overall conclusion): 2-VO rats with poor blood supply to brain, L-NBP at 10 mg/kg, 10 mg/kg
[2] = tested on: choline acetyltransferase (ChAT); experiment: ChAT activity in cortex and hippocampus of hypoperfused (2-VO) rats; settings: 10 mg/kg
[3] = tested on: Superoxide dismutase (SOD); experiment: SOD activity in cortex and hippocampus of hypoperfused (2-VO) rats; settings: 10 mg/kg
[4] = tested on: rats with continuous perfusion of Aβ (1-40) into lateral ventricle; experiment: Morris' water maze and working memory test after continuous i.c.v. perfusion of Aβ (1-40); settings: for search strategy after 5 days of training / latency after 5 days of training: Aβ (1-40) i.c.v. rats; for latency after 5 days of training: mean±standard error, model 30.18±4.81, sham 13.02±2.77, p<0.05 vs model
Protocol: For Morris' Water Maze Automatic Monitor and experimental protocols, reference may be made to the experiments of learning and memory damage of rats induced by brain hypoperfusion.
Male Wistar rats, which were 10-weeks old and weighed approximately 280 grams, were used. One animal was placed in one cage, while the room temperature was kept at 23° C., with food and water freely accessible. Rats were anaesthetized with sodium pentobarbital (40 mg/kg), and were fixed to stereotaxic apparatus with the position of ventral decubitus. Head skin was cut open, a cannula for Aβ (1-40) perfusion was implanted into right ventricle. According to the stereotaxic profile of rat brain by Paxions and Watson, the implantation site was located 0.3 mm behind and 1.1 mm in the right side of anterior fontanelle, with the depth of 4.0 mm. The cannula was connected to a micro-osmotic pump. The pump was placed on the back of the rat. Aβ (1-40) was dissolved in 35% acetonitrile/0.1% trifluroacetic acid, and was continuously perfused intracerebroventricularly (i.c.v.) at 300 pmol/day, while only the solvent (35% acetonitrile/0.1% trifluroacetic acid) was perfused in the control group.
Rats were randomly classified into […] groups, with 10 animals per group. 1) the sham surgery group: only 35% acetonitrile/0.1% trifluroacetic acid+solvent was perfused into the ventricles of the rats; 2) the model group: Aβ (1-40)+solvent; 3) Aβ (1-40)+L-NBP 10 mg/kg group; 4) Aβ (1-40)+L-NBP 30 mg/kg group. Respective drug or solvent was drenched since the 2nd day after the surgery. The water maze experiment was performed on the 9-13 day after the surgery, while the platform exploration experiment was performed on the 13th day, and the working memory test was performed on the 14-16th days. Animals were decapitated to remove brains for biochemical assay on the 17th day. In all ethological tests, medicines were administered 40 minutes prior to the respective test.
The water maze training experiment was performed on the 9-13th day after icv Aβ (1-40), and the platform exploration experiment was performed on the 13 day after that. The working memory test was performed on the 14-16th day after icv Aβ (1-40) (see the figure above), which investigated the ability of rapid learning and spatial memory in animals when the platform and quadrant were changed, based on the fact that animals had memorized in some extent after training and platform exploration experiment. Experimental procedure was similar to the standard water maze training experiment except that the platform's location was changed every day. The experiment was conducted five times every day, allowing the rats to start swimming from five water-entry sites respectively. […] In the following 4 experiments, the location of the platform was kept constant, yet the water entry sites were within different quadrants. The latency of working memory was calculated by averaging those of the 2-5th experiments, and the ability of working memory of each rat was calculated by averaging the experimental values in 3 days.
All results were expressed in mean±standard error. Comparison of latencies between groups in water maze experiment was performed using two-factor analysis of variance in replicate. Comparison between groups was performed using post hoc LSD or Turkey test. Platform exploration test in water maze experiment, working memory test and biochemical assay were analyzed using one-factor analysis of variance. A difference was considered significant when p<0.05.

[5] = tested on: neurons, substantia alba of optic tracts and GFAP-positive astrocytes in brain; experiment: Pathological and immunohistochemical detection (H-E, K-B, GFAP staining) in 2-VO rats
Protocol: Male Wistar rats, which were 10-weeks old and weighed approximately 280 grams, were used. 5 animals were placed in each cage, while the room temperature was kept at 23° C., with food and water freely accessible. Rats were anaesthetized with sodium pentobarbital (40 mg/kg), then bilateral common carotid arteries were exposed and the envelope of common carotid arteries and vagus nerve was carefully separated. For the hypoperfusion model group, bilateral common carotid arteries were ligated with 5-0 silk thread. For the sham surgery group, the same operation was conducted but with no ligation of bilateral common carotid arteries. A little of sterile crystalline sulfanilamide powder was applied on the wound after the surgery, then the skin was sutured. One month after the surgery, water maze and step-through test were performed. Rats were randomly assigned into 8 groups, with 10 animals per group. 1) sham surgery group: the same operation as that in hypoperfusion group was conducted but without ligation of bilateral common carotid arteries; 2) solvent control group: only vegetable oil was orally administered; 3) DL-NBP 10 mg/kg group; 4) DL-NBP 30 mg/kg group; 5) L-NBP 10 mg/kg group; 6) L-NBP 30 mg/kg group; 7) D-NBP 30 mg/kg group; Respective medicines or solvent were drenched since the 10th day after the surgery. Water maze experiments were performed on the 29-33rd days since the surgery, while step-through tests were performed on the 34-35th days since the surgery. Animals were killed for biochemical assay or pathological examination on the 36th day. In all the ethological tests, medicines were administered 40 minutes prior to respective test. 4-6 animals were chosen from each group randomly. After the ethological experiments, rats were anaesthetized with pentobarbital (100 mg/kg ip). Animal's skin and thorax was sequentially cut open and the heart was sufficiently exposed. Left tip of the heart was cut open, a perfusion needle was inserted along the aorta. After clamping with hemostat, physiological saline was infused. […]

malondialdehyde (MDA) = experiment: MDA content in cortex and hippocampus of hypoperfused (2-VO) rats; settings: 10 mg/kg

CCCC[C@@H]1OC(=O)c2ccccc21 [L-NBP, L-n-butylphthalide]
detention time in the target quadrant (platform exploration test, 60 seconds free swimming) ([1]; 10 mg/kg oral, 2-VO rats, mean±standard error, solvent control 14.40±0.73, sham 17.73±1.19, p<0.05 vs solvent control): 17.62 ± 1.27 s
latency (time required for finding the platform) after 5 days of training ([1]; 10 mg/kg oral, 2-VO rats, mean±standard error, solvent control 47.6±5.88, sham surgery 12.6±3.34, p<0.001 vs solvent control): 26.85 ± 5.98 s
search strategy after 5 days of training ([1]; 10 mg/kg oral, 2-VO rats, solvent control still peripheral and random): changed from peripheral and random to purposive and linear
amelioration of impaired short-term memory and spatial orientation (overall conclusion) [1]: could significantly ameliorate
amelioration of impaired short-term memory and spatial orientation (overall conclusion) ([1]; listed as L-n-butylphthalide): could significantly improve; also recorded: could significantly ameliorate
improvement of cortical ChAT activity as compared with the model group ([2]; continuous administration for 16 days, 2-VO rats, p<0.05): 37.1%
ChAT activity, cortex ([2]; hypoperfused rats, n = 7-9, solvent control 65.6 ± 15.1, p<0.05 vs solvent control): 104.3 ± 8.2 % of sham
ChAT activity, hippocampus ([2]; hypoperfused rats, n = 7-9, solvent control 102.6 ± 15.1): 110.0 ± 13.5 % of sham
SOD activity in hippocampus after treatment (in words) ([3]; 2-VO rats, p<0.05): returned close to the normal level
SOD activity, hippocampus ([3]; hypoperfused rats, n = 7-9, solvent control 81.16 ± 6.84, sham 57.90 ± 7.41, p<0.05 vs solvent control): 57.60 ± 3.86 NU/mg protein
SOD activity, cortex ([3]; hypoperfused rats, n = 7-9, solvent control 114.42 ± 7.82, sham 100.07 ± 3.64): 98.84 ± 5.53 NU/mg protein
search strategy after 5 days of training ([4]; 10 mg/kg oral): changed from peripheral and random to purposive and linear
latency after 5 days of training ([4]; 10 mg/kg oral): 27.28 ± 6.42 s
search strategy after 5 days of training ([4]; 30 mg/kg oral): changed from peripheral and random to purposive and linear
latency after 5 days of training ([4]; 30 mg/kg oral): 25.88 ± 5.51 s
working memory (latency in 2-5th experiments) ([4]; 10 and 30 mg/kg, days 14-16 after Aβ (1-40), model 14.05±1.88 s, sham 9.15±0.91 s, p<0.01): can significantly improve the working memory ability in a dose-dependent way; also recorded: could improve the working memory of rats in a dose-dependent manner
amelioration of impaired short-term memory and stereotaxic memory (overall conclusion) ([4]; continuous perfusion of Aβ (1-40) into lateral ventricle, rats, Morris' water maze): could significantly ameliorate
number of GFAP-positive astrocytes (immunohistochemistry) ([5]; 10 mg/kg): greatly reduced
sparse substantia alba / vacuola in optic tracts (K-B staining) ([5]; 10 mg/kg extended administration): significant reduction of vacuola
neuronal damage in cortex and hippocampal CA1 induced by hypoperfusion (H-E staining) ([5]; 10 mg/kg, 5 weeks after ligation): could be significantly ameliorated
reduction of MDA content in cortex (malondialdehyde (MDA); 2-VO rats, vs model group, p<0.001): 20.7%
MDA content, hippocampus (malondialdehyde (MDA); hypoperfused rats, n = 7-9, solvent control 3.63 ± 0.45, sham 3.03 ± 0.12): 3.42 ± 0.12 nmol/mg protein
MDA content, cortex (malondialdehyde (MDA); hypoperfused rats, n = 7-9, solvent control 3.91 ± 0.22, sham 3.13 ± 0.10, p<0.001 vs solvent control): 3.10 ± 0.09 nmol/mg protein
